The text below walks through data of US9663486B2, “Selectively substituted quinoline compounds” (EISAI R&D MANAGEMENT CO., LTD., priority 2013, dated 2017).

SMILES strings stand for the structures.

One test deals with T1, mouse TLR7 (Mus musculus, UniProt P58681).
T1 construct: tissue Jackson Labs; host or cells: live female BALB/c mice
T1 sequence (P58681 27-1050): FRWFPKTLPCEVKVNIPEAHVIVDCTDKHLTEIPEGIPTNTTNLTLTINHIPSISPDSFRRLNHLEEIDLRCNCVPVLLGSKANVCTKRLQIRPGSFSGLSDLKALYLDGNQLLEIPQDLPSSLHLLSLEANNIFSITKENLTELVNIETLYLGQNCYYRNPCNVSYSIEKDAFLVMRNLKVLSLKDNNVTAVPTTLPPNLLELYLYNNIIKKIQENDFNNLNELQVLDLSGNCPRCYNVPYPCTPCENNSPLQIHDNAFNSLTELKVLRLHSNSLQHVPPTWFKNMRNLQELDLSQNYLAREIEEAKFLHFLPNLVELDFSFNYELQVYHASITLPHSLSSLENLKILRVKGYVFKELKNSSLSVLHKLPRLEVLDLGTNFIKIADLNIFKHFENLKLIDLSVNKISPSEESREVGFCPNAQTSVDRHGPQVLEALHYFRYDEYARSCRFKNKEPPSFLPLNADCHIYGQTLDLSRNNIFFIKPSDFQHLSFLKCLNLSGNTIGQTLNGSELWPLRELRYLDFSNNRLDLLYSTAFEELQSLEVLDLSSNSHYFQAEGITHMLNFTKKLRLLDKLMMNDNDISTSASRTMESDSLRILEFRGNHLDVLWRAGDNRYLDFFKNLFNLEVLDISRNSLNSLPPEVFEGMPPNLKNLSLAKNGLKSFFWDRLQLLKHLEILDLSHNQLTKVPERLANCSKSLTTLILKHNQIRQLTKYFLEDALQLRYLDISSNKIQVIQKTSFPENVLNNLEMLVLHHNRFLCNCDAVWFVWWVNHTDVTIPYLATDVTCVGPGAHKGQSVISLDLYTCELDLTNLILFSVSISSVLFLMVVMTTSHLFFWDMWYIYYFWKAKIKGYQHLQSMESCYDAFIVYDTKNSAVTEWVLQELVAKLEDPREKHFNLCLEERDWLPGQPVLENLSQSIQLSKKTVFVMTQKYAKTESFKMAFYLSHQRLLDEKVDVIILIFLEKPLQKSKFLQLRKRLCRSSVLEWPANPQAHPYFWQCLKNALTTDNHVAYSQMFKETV
Put plainly: Short-term in vivo (STIV) assay, plasma IL-6 after R848. The settings on record: plasma IL-6 after R848 s.c., BALB/c mice. As for the experimental part: To assess compound potency in vivo against mouse TLR7, a short-term in vivo (STIV) assay was utilized. Briefly, mice were orally dosed with compounds and at various time points afterwards were injected subcutaneously with agonist R848 to stimulate TLR7. The plasma IL-6 level following R848 stimulation was then measured by ELISA to assess compound potency and duration-of-action. […] Therefore, the activity of compounds in the STIV assay can be confidently attributed to their modulation of the TLR7 pathway.
Six to eight week old female BALB/c mice (Jackson Labs, Bar Harbor, Me.) were dosed by oral gavage in 200 ul volume with antagonist compounds formulated in 0.5% aqueous methyl-cellulose (Sigma, St. Louis, Mo.). At various time points afterwards, mice were injected subcutaneously (s.c.) in 100 ul volume with 15 ug R848 (Resiquimod; GLSynthesis, Worcester, Mass.) to stimulate TLR7. Blood plasma was collected by cardiac puncture, and levels of IL-6 at 1.5 hours after TLR7 stimulation were then assessed by standard ELISA procedure according to the manufacturer's recommended protocol (R&D Systems).

For the next test, the system named is Human TLR7/8. As to the kind of experiment: Human PBMC cell-based assay, TLR7/8 (RNA-Ig), cytokine ELISA. As to conditions: PBMC assay data summary; ligand and analyte not given; read-out: Human PBMCs IC50. How it is done: Human peripheral blood mononuclear cells (PBMC) were isolated from freshly-drawn heparinized (10 USP units/ml, Hospira, Lakeforest, Ill.) healthy donor whole blood by density gradient (Histopaque® 1077, Sigma, Inc., St. Louis, Mo.). Briefly, 25 ml blood was diluted with 15 ml PBS (without Ca^2+, Mg^2+) in a 50 ml conical tube, and 12 ml Histopaque was underlaid using a spinal needle. Tubes were centrifuged for 45 minutes at 1200 rpm (350×g), and PBMC were collected from the buffy coat. Cells were then washed twice in PBS, and red blood cells were lysed by suspension in 5 ml ammonium chloride solution (1× Red Blood Cell Lysis Buffer, eBioscience) for 5 minutes at room temperature. After a final wash in PBS, PBMC were resuspended at a final concentration of 2×10^6/ml in RPMI-1640 media with L-glutamine (Invitrogen) and supplemented with 25 mM HEPES (Mediatech, Inc, Manassas Va.), 10% fetal bovine serum (HyClone, Logan, Utah), and Penicillin-Streptomycin-Glutamine (Mediatech) and plated at 100 ul/well (2×10^5 cells/well) in tissue culture treated 96-well plates (Falcon).
Antagonist compounds solubilized and serial diluted in 100% DMSO were added in triplicate to cells to yield a final concentration of 0.1% DMSO (v/v). Hydroxychloroquine (Acros Organics) solubilized and serial diluted in PBS was added in triplicate to cells. PBMC were incubated with antagonist compounds or HCQ for 30 minutes at 37° C., 5% CO2 before adding various TLR agonist reagents in 100 ul complete media per well as follows (final concentrations indicated): R848 (Resiquimod; GLSynthesis, Worcester, Mass.) at 1 uM for TLR7 and TLR8, Pam3CSK4 (InvivoGen) at 50 ng/ml for TLR1/2, LPS (Sigma) at 10 ng/ml for TLR4, and CpG-2216 (InvivoGen) at 5 ug/ml for TLR9. […] The resulting “RNA-Ig” stimulus was incubated at room temperature for 15-30 minutes before adding to cells. PBMC were incubated with the various TLR agonists for 20 hours at 37° C., 5% CO2. Cell culture supernatants were collected, and levels of various human cytokines were assessed as indicated by standard ELISA procedure according to the manufacturer's recommended protocol (BD Biosciences, Inc., San Diego, Calif.).
Background: ELISA stands for enzyme-linked immunosorbent assay.

Where [1] appears, read: 13 hr after oral dose, 33 mg/kg.
The mark [2] stands for this setting: 13 hr after oral dose, 100 mg/kg.
Where [3] appears, read: 13 hr after oral dose, 300 mg/kg.
[4] abbreviates: 24 hr after oral dose, 100 mg/kg.
[5] abbreviates: 24 hr after oral dose, 300 mg/kg.

In the case of `CC1CC(NC(=O)C2(C)COC2)CN(c2ccc(C#N)c3ncccc23)C1` (stereo not drawn) [ER-899072], the “% Suppression vs. Vehicle” value is reported as 94% on mouse TLR7 (6 h after oral dose, 100 mg/kg); 34% at mouse TLR7 (setting [1]); 72% on mouse TLR7 (setting [2]); 100% on mouse TLR7 (setting [3]); 0% on mouse TLR7 (setting [4]); 78% at mouse TLR7 (setting [5]). In addition, the IC50 in the test with Human TLR7/8 was found to be 0.008 µM.
Regarding `C[C@H]1C[C@@H](N(C)C)CN(c2ccc(C#N)c3ncccc23)C1` [ER-889591], the IC50 with Human TLR7/8 was 0.042 µM.
Same read-out and setting: to `CC1CC(NC(=O)C(N)c2ccccc2)CN(c2ccc(C#N)c3ncccc23)C1` (stereo not drawn) [ER-898350] belongs 0.02 µM; to `CNC(C(=O)NC1CC(C)CN(c2ccc(C#N)c3ncccc23)C1)C(C)C` (stereo not drawn) [ER-898334], 0.008 µM; to `CC1CC(O)CN(c2ccc(C#N)c3ncccc23)C1` (stereo not drawn) [ER-896464], 0.006 µM.
In the case of `CC1CC(NC2COC2)CN(c2ccc(C#N)c3ncccc23)C1` (stereo not drawn) [ER-899541], the “% Suppression vs. Vehicle” value stood at 97% at mouse TLR7 (6 h after oral dose, 100 mg/kg) and 92% on mouse TLR7 (setting [2]). The IC50 with Human TLR7/8 amounted to 0.015 µM.
In the case of `C[C@H]1C[C@@H](NCc2cn(C)cn2)CN(c2ccc(C#N)c3ncccc23)C1` [ER-899552], in the test with Human TLR7/8, the IC50 was 0.104 µM.
Same read-out and setting: for `CC(C)CC(N)C(=O)NC1CC(C)CN(c2ccc(C#N)c3ncccc23)C1` (stereo not drawn) [ER-897999] the value was 0.002 µM; for `CC(C)CC(N)C(=O)NC1CC(C)CN(c2ccc(C#N)c3ncccc23)C1` (stereo not drawn) [ER-897998], 0.002 µM.
On to `CN[C@@H]1C[C@H](C)CN(c2ccc(C#N)c3ncccc23)C1` [ER-897184], for which the IC50 in the test with Human TLR7/8 came out at 0.004 µM.
Regarding `CNCC(=O)NC1CC(C)CN(c2ccc(C#N)c3ncccc23)C1` (stereo not drawn) [ER-897608], the “% Suppression vs. Vehicle” value at mouse TLR7 (6 h after oral dose, 33 mg/kg) came to 98%; on mouse TLR7 (setting [1]), 56%; on mouse TLR7 (setting [2]) it was 84%; on mouse TLR7 (setting [3]) it was 98%; at mouse TLR7 (24 hr after oral dose, 33 mg/kg), 35%; on mouse TLR7 (setting [4]), 22%. Besides, the “% Suppression vs. Vehicle” value on mouse TLR7 (setting [5]) came to 95%. Besides, in the test on Human TLR7/8, the IC50 is 0.005 µM.
`CC1CC(NC(=O)C(O)C(C)C)CN(c2ccc(C#N)c3ncccc23)C1` (stereo not drawn) [ER-897972]: in the test on Human TLR7/8, the IC50 came out at 0.017 µM.
As for `C[C@H]1C[C@@H](NS(=O)(=O)CCCN(C)C)CN(c2ccc(C#N)c3ncccc23)C1` [ER-899672], the “% Suppression vs. Vehicle” value worked out at 89% at mouse TLR7 (6 h after oral dose, 100 mg/kg) and 83% at mouse TLR7 (setting [2]). For the same compound, in the test on Human TLR7/8, the IC50 was 0.003 µM.
Turning to `C[C@H]1C[C@@H](NCc2ncco2)CN(c2ccc(C#N)c3ncccc23)C1` [ER-899551], in the test with Human TLR7/8, the IC50 is 0.024 µM.
Same read-out and setting: for `CC1CC(NC(=O)c2cccc(O)c2)CN(c2ccc(C#N)c3ncccc23)C1` (stereo not drawn) [ER-897973] the value was 0.011 µM; for `C[C@H]1C[C@@H](NS(=O)(=O)CCN)CN(c2ccc(C#N)c3ncccc23)C1` [ER-899669], 0.009 µM; for `COCCNC1CC(C)CN(c2ccc(C#N)c3ncccc23)C1` (stereo not drawn) [ER-897275], 0.006 µM.
Still for that read-out and setting: for `CCOC(=O)CN(CC(=O)OCC)C1CC(C)CN(c2ccc(C#N)c3ncccc23)C1` (stereo not drawn) [ER-899505] the value was 0.127 µM; for `CCOC(=O)CNC1CC(C)CN(c2ccc(C#N)c3ncccc23)C1` (stereo not drawn) [ER-899504], 0.081 µM; for `CC1(C)C[C@@H](N)CN(c2ccc(C#N)c3ncccc23)C1` [ER-895386], 0.017 µM.
`CC1CC(NC2CCOC2)CN(c2ccc(C#N)c3ncccc23)C1` (stereo not drawn) [ER-899544]: the “% Suppression vs. Vehicle” value on mouse TLR7 (6 h after oral dose, 100 mg/kg) is on record as 97%; at mouse TLR7 (setting [2]), 94%. In addition, the IC50 in the test on Human TLR7/8 was 0.005 µM.
For the compound `CC1CC(NC(=O)C(N)Cc2cccnc2)CN(c2ccc(C#N)c3ncccc23)C1` (stereo not drawn) [ER-898360], the 50% inhibitory concentration (IC50) in the test with Human TLR7/8 came out at 0.011 µM.
Turning to `COCC(N)C(=O)NC1CC(C)CN(c2ccc(C#N)c3ncccc23)C1` (stereo not drawn) [ER-897990], the IC50 with Human TLR7/8 turned out to be 0.003 µM.
The same measure, in the same setting: to `CC1CC(NC(=O)CN)CN(c2ccc(C#N)c3ncccc23)C1` (stereo not drawn) [ER-897274] belongs 0.007 µM; to `CC1CC(NC(=O)CO)CN(c2ccc(C#N)c3ncccc23)C1` (stereo not drawn) [ER-897971], 0.005 µM; to `CC1CC(NC(=O)C(N)C(C)C)CN(c2ccc(C#N)c3ncccc23)C1` (stereo not drawn) [ER-897987], 0.012 µM.
For `CC(=O)NC1CC(C)CN(c2ccc(C#N)c3ncccc23)C1` (stereo not drawn) [ER-896310], the IC50 in the test with Human TLR7/8 amounted to 0.063 µM.
The same measure, in the same setting: for `C[C@H]1C[C@@H](NC(=O)C2(N)COC2)CN(c2ccc(C#N)c3ncccc23)C1` [ER-899350] the value was 0.067 µM.
Same read-out and setting: for `CC1CC(NC(=O)CS(C)(=O)=O)CN(c2ccc(C#N)c3ncccc23)C1` (stereo not drawn) [ER-897978] the value was 0.014 µM.

The term IC50 denotes the concentration at which inhibition is half-maximal.
